Consider two compounds from ChEMBL document CHEMBL1156278, “Novel benzothiophene H1-antihistamines for the treatment of insomnia” (Bioorg Med Chem Lett, 2010).

In general, Papp refers to the rate of passage across a membrane or cell layer, normalised by area and donor concentration. The term Ki denotes a dissociation constant, usually derived from enzyme kinetics or from competition with a known ligand. In general, IC50 refers to the point on the concentration scale where inhibition reaches its midpoint. The AUC(0-t) is exposure summed from dosing to a finite time, without extrapolation to infinity. Read a low AUC(0-t) as less exposure. By bioavailability is commonly meant the share of a dose that reaches the circulation, judged against a reference dose that is usually intravenous. What is called clearance is the volume of plasma or blood freed of the substance per unit of time. Read a high clearance as efficient removal. The half-life is the time needed for the level to fall by half in the phase considered. Low readings indicate rapid decline, high ones slow decline.

In data set [1] the test system is Rattus norvegicus. Nature of the data set: Increase in NREM sleep in CD IGS rat model of insomnia at 60 mg/kg, po after 4 hrs by EEG/EMG study relative to control. Format: functional.
The test system of data set [2] is Rattus norvegicus. Nature of the data set: Effect on sleep-awake pattern in CD IGS rat model of insomnia assessed as latency to REM sleep at 30 mg/kg, po by EEG/EMG study relative to control. In kind it is functional.
Data set [3] can be described thus: Activity at P-glycoprotein.
In data set [4] the test system is Rattus norvegicus. Nature of the data set: Effect on sleep-awake pattern in CD IGS rat model of insomnia assessed as latency to NREM sleep at 30 mg/kg, po by EEG/EMG study relative to control. In kind it is functional.
In data set [5] the test system is Rattus norvegicus. Nature of the data set: Effect on sleep-awake pattern in CD IGS rat model of insomnia assessed as latency to NREM sleep at 60 mg/kg, po by EEG/EMG study relative to control. Format: functional.
Data set [6] has as its system Rattus norvegicus. Nature of the data set: Increase in REM sleep in CD IGS rat model of insomnia at 60 mg/kg, po after 4 hrs by EEG/EMG study relative to control. In kind it is functional.
A short description of data set [7]: Apparent permeability across human Caco-2 cells. Format: ADME, cell-based. A general note: Passage across Caco-2 layers is used to estimate intestinal permeability.
Data set [8] addresses T1, Muscarinic acetylcholine receptor M1 (Homo sapiens, UniProt P11229).
T1 sequence (P11229 whole entry): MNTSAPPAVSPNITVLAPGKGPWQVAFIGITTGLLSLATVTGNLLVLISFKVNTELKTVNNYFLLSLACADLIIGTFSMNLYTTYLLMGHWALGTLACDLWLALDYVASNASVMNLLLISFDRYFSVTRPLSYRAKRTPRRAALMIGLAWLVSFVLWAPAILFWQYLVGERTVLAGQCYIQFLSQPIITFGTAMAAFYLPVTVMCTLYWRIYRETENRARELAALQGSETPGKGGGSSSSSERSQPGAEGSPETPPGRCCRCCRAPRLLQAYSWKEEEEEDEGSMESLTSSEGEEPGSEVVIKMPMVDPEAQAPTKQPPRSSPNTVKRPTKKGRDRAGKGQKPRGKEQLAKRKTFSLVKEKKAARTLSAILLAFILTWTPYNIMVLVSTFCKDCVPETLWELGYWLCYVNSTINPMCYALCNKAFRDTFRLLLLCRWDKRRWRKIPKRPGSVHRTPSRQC
The experiment in a line: Displacement of [3H]N-methylscopolamine from human muscarinic M1 receptor expressed in CHO Flp-In cells after 90 mins by scintillation counting. Format: cell-based. The settings on record: read-out: Ki.

For data set [9], the target named is T2, Voltage-gated inwardly rectifying potassium channel KCNH2 (Homo sapiens, UniProt Q12809). Nature of the data set: Displacement of [3H]Dofetilide from human ERG. In general terms: In a radioligand displacement assay an active substance lowers the binding of a labelled ligand.
The target in data set [10] is T2, Voltage-gated inwardly rectifying potassium channel KCNH2. Nature of the data set: Inhibition of human ERG expressed in HEK cells assessed as blockade of potassium tail current by standard patch clamp analysis. (In general: In patch-clamp work, channel activity is measured electrically.)
The next data set concerns Caco-2. Nature of the data set: Ratio of permeability from apical to basolateral side over basolateral to apical side in human Caco-2 cells.
The nature of data set [11]: Drug level in rat brain at 30 mg/kg, po after 4 hrs. Also noted: dose 30 mg/kg, route oral. In kind it is ADME, organism-based. The settings on record: read-out: Drug uptake.
Another data set deals with Cytochrome P450 2D6 (Homo sapiens, UniProt P10635). The experiment in a line: Inhibition of recombinant CYP2D6 after 30 mins by fluorescence assay.
Data set [12] relates to Rattus norvegicus. The experiment in a line: Increase in NREM sleep in CD IGS rat model of insomnia at 30 mg/kg, po after 4 hrs by EEG/EMG study relative to control. In kind it is functional.
The target of the next data set is Histamine H1 receptor (Homo sapiens, UniProt P35367). Nature of the data set: Displacement of [3H]pyrilamine from human histamine H1 receptor expressed in CHO Flp-In cells after 90 mins by scintillation counting. Format: cell-based. The conditions noted are these: read-out: Ki.
In data set [13] the test system is Rattus norvegicus. The experiment in a line: Effect on sleep-awake pattern in CD IGS rat model of insomnia assessed as longest 3 REM bouts at 60 mg/kg, po after 6 hrs by EEG/EMG study relative to control. Format: functional.
Data set [14] relates to Rattus norvegicus. The experiment in a line: Effect on sleep-awake pattern in CD IGS rat model of insomnia assessed as longest 3 REM bouts at 30 mg/kg, po after 6 hrs by EEG/EMG study relative to control. In kind it is functional.
Data set [15] is described as follows: Ratio of drug level in rat brain to plasma at 30 mg/kg, po after 4 hrs. Also noted: dose 30 mg/kg, route oral. Format: ADME, organism-based. The settings on record: read-out: Ratio.
The subject of data set [16] is Rattus norvegicus. The experiment in a line: Effect on sleep-awake pattern in CD IGS rat model of insomnia assessed as longest 3 NREM bouts at 30 mg/kg, po after 6 hrs by EEG/EMG study relative to control. In kind it is functional.
The test system of data set [17] is Rattus norvegicus. The experiment in a line: Effect on sleep-awake pattern in CD IGS rat model of insomnia assessed as latency to REM sleep at 60 mg/kg, po by EEG/EMG study relative to control. Format: functional.
Data set [18] concerns Rattus norvegicus. The experiment in a line: Increase in REM sleep in CD IGS rat model of insomnia at 30 mg/kg, po after 4 hrs by EEG/EMG study relative to control. In kind it is functional.
The nature of data set [19]: Drug level in rat plasma at 30 mg/kg, po after 4 hrs. In kind it is ADME, organism-based. The arrangement: dose 30 mg/kg, route oral.
The test system of data set [20] is Rattus norvegicus. Nature of the data set: Effect on sleep-awake pattern in CD IGS rat model of insomnia assessed as longest 3 NREM bouts at 60 mg/kg, po after 6 hrs by EEG/EMG study relative to control. Format: functional.
The target of the next data set is Cytochrome P450 3A4 (Homo sapiens, UniProt P08684). Nature of the data set: Inhibition of recombinant CYP3A4 after 30 mins by fluorescence assay.
Data set [21] can be described thus: Volume of distribution at steady state in human at 0.1 mg/kg by microdose study. In kind it is ADME, organism-based. Also noted: dose 0.1 mg/kg. The conditions noted are these: in vivo, read-out: Vdss.
The nature of data set [22]: AUC (0 to t) in human at 0.1 mg/kg, po by microdose study. Format: ADME, organism-based. The arrangement: dose 0.1 mg/kg, route oral. The settings on record: plasma.
Data set [23] can be described thus: Bioavailability in human at 0.1 mg/kg by microdose study. The settings on record: in vivo. In kind it is ADME, organism-based.
Data set [24] can be described thus: Systemic clearance in human at 0.1 mg/kg, iv by microdose study. In kind it is ADME, organism-based. The arrangement: dose 0.1 mg/kg, route intravenous. The settings on record: in vivo.
The nature of data set [25]: Half life in human at 0.1 mg/kg by microdose study. The conditions noted are these: in vivo. Format: ADME, organism-based. Also noted: dose 0.1 mg/kg.

Active and inactive are the calls of the source.

Histamine H1 receptor, sequence (P35367 whole entry): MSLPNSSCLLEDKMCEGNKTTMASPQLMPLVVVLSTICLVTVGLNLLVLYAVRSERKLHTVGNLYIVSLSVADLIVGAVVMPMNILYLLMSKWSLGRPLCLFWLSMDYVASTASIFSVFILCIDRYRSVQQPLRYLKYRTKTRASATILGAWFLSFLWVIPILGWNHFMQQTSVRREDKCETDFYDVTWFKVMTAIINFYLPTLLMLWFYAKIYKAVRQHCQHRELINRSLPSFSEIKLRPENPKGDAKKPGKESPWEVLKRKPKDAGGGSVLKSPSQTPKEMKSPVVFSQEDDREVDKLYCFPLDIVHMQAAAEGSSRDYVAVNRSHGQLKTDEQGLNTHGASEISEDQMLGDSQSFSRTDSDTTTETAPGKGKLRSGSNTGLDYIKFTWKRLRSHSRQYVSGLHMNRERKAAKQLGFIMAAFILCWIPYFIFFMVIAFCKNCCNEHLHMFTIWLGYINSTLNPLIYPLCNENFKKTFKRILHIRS
T2 sequence (Q12809 whole entry): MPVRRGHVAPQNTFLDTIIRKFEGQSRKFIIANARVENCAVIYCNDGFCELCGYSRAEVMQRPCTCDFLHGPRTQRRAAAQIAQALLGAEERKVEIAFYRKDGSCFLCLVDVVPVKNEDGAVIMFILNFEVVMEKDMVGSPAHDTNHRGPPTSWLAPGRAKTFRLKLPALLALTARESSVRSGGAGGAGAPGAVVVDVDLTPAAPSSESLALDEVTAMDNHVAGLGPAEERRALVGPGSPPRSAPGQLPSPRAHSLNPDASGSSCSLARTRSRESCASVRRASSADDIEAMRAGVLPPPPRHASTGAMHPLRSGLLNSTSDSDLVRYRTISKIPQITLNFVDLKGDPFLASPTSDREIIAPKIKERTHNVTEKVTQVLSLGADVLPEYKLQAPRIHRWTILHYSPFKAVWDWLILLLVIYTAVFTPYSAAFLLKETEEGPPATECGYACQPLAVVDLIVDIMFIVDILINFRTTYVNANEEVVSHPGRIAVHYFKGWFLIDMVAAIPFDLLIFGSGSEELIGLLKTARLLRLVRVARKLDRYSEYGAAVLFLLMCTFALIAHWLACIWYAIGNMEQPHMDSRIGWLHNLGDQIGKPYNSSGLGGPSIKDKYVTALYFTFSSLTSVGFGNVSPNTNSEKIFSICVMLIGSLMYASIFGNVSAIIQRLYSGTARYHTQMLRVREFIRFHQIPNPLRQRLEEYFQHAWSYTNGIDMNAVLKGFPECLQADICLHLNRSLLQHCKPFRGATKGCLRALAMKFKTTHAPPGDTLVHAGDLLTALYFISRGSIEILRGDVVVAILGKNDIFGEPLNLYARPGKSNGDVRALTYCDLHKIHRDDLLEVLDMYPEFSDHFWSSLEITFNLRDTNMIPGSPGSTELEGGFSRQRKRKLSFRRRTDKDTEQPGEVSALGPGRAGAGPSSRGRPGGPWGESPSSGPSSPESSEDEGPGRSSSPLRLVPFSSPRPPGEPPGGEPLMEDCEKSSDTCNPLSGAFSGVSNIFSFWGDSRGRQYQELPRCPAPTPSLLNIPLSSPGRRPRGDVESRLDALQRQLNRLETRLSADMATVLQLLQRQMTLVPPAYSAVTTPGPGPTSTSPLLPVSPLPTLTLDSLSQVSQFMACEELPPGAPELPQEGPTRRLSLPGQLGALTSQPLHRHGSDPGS
Cytochrome P450 2D6, sequence (P10635 whole entry): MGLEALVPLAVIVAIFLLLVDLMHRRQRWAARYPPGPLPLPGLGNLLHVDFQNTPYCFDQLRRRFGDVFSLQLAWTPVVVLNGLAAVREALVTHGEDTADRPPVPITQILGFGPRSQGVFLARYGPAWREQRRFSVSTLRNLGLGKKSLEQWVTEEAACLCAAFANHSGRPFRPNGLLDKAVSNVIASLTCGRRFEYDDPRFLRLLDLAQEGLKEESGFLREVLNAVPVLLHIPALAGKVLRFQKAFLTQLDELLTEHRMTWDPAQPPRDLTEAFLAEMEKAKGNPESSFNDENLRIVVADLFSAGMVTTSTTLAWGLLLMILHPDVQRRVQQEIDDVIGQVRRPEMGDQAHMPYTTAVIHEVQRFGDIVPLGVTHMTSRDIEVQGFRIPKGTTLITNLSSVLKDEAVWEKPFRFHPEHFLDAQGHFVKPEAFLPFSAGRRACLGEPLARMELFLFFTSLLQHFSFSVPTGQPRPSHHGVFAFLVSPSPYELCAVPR
Cytochrome P450 3A4, sequence (P08684 whole entry): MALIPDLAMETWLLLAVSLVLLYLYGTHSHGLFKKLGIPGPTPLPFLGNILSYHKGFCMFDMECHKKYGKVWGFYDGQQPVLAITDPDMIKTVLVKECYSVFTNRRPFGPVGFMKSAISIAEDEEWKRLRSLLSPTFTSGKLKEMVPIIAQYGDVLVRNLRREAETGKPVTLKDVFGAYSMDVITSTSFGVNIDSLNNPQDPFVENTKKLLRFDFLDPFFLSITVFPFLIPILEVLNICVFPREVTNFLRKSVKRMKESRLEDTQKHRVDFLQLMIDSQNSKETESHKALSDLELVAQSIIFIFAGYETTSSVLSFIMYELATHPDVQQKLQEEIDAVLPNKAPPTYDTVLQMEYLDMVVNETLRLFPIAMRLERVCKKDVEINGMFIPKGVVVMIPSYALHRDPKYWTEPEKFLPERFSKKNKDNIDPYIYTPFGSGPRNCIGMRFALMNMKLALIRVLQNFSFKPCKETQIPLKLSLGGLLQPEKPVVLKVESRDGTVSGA

On to `COc1ncccc1[C@@H](C)c1c(CCN(C)C)sc2ccccc12`, for which the Activity stood at 28.3% in the data set on Rattus norvegicus [1]; 56 min in the data set with Rattus norvegicus [2]; 37 min with Rattus norvegicus [4]; 49 min in the data set with Rattus norvegicus [5]; 6.8% with Rattus norvegicus [6]; 33.1% in the data set on Rattus norvegicus [12]. Moreover, the Activity in the data set with Rattus norvegicus [13] is given as 2.3 min; in the data set on Rattus norvegicus [14], 2.3 min; in the data set with Rattus norvegicus [16], 7 min; with Rattus norvegicus [17], 72 min; in the data set on Rattus norvegicus [18] it was 7%; in the data set with Rattus norvegicus [20], 6.7 min. Moreover, the result in [3] was inactive. For the same compound, the Papp in data set [7] was > 21.7 ×10⁻⁶ cm/s. Moreover, the inhibition constant (Ki) in data set [8] is > 10 µM; in [9], > 5 µM; at Histamine H1 receptor, 0.0029 µM. Besides, the IC50 in [10] is 1.8 µM; at Cytochrome P450 2D6, 9.6 µM; on Cytochrome P450 3A4, > 10 µM. In addition, the Ratio with Caco-2 is reported as > 0.7. In addition, the values for the concentration at 4 h in data set [11] and in data set [19] were 347 ng/g and 37.5 ng/mL, respectively. In addition, the Kp at 4 h in data set [15] was determined as 9.
In the case of `C[C@H](c1cccnc1F)c1c(CCN(C)C)sc2ccccc12`, the Activity came out at 32% in the data set with Rattus norvegicus [1]; 49 min in the data set with Rattus norvegicus [2]; 33 min with Rattus norvegicus [4]; 45 min with Rattus norvegicus [5]; 6.6% with Rattus norvegicus [6]; 27.4% with Rattus norvegicus [12]. The Activity in the data set with Rattus norvegicus [13] is recorded as 2.2 min; in the data set with Rattus norvegicus [14], 2.1 min; in the data set with Rattus norvegicus [16], 5.8 min; in the data set on Rattus norvegicus [17], 64 min; with Rattus norvegicus [18], 6.4%; with Rattus norvegicus [20], 6.7 min. In data set [3], the outcome was inactive. The Vd in data set [21] was 5.6 L/kg. Also, the apparent permeability coefficient (Papp) in data set [7] is > 21.7 ×10⁻⁶ cm/s. Also, the figures for the Ki (in data set [8]; at Histamine H1 receptor) were > 10 µM and 0.0017 µM, respectively. Moreover, the exposure AUC(0-t) in data set [22] came out at 0.64 ng·h/mL. Moreover, the bioavailability in data set [23] was determined as 23%. For the same compound, the clearance in [24] came out at 12.1 mL/min/kg. Besides, the concentration at 4 h in data set [11] is 83 ng/g; in data set [19], 3 ng/mL. Also, the half-life in data set [25] was 13 h. Moreover, the Kp at 4 h in data set [15] was 26.
